Values joined by “and” are separate entries in the source; they are usually repeats but may differ in a detail not shown here. Equal values may be shown once.

The target of one experiment is D1-type receptors (Sus scrofa, UniProt P50130). Conditions: test substance 1 μmol/L.
The target in another experiment is T1, D2-type receptors (Sus scrofa, UniProt F1SM69).
T1 construct: As native material which contains both D1 and D2 receptors in sufficient amount; from tissue; host or cells: porcine brain striatum, membrane fraction
Put plainly: MS binding assay with marker spiroperidol in striatal membrane fraction, unbound marker quantified. Also noted: species or system porcine.

T1 sequence (F1SM69 1-443): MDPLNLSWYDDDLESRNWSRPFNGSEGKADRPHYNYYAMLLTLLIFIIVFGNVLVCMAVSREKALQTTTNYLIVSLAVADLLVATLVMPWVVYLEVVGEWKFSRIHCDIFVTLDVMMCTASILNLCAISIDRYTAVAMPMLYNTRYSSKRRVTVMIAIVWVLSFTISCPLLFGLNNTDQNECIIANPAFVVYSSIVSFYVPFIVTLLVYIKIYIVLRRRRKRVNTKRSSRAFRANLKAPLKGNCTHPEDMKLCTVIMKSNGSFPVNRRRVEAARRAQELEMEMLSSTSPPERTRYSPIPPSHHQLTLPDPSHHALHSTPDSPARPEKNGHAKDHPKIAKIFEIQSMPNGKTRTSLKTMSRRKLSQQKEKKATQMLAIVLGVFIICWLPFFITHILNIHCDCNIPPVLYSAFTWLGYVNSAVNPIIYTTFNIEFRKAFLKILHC
D1-type receptors, sequence (P50130 whole entry): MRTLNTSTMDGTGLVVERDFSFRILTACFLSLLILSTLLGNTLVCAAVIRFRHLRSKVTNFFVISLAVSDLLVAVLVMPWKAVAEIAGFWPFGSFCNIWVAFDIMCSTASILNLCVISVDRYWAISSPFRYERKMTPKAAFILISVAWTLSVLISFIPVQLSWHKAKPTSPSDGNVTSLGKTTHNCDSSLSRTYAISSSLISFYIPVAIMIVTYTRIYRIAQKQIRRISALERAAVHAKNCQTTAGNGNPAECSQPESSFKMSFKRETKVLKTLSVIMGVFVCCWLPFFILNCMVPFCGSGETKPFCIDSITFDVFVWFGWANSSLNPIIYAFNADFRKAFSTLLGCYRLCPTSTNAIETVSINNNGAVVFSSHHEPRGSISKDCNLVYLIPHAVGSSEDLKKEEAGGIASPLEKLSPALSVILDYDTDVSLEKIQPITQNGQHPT

Take `COC(=O)c1ccccc1` [methyl benzoate]: the “inhibition of the specific binding of the marker SCH23390 to D1-type receptors” value at D1-type receptors is on record as “none is capable”. Further, on D2-type receptors (test substance 1 μmol/L), the “inhibition of the specific binding of the marker spiroperidol to D2-type receptors” value is reported as “not capable of inhibiting”.
`O=C(CCCN1CCC2(CC1)C(=O)NCN2c1ccccc1)c1ccc(F)cc1` [spiroperidol]: the “concentration of unbound marker spiroperidol” value at D2-type receptors was 1.93 nmol/L and 2.75 nmol/L and 2.78 nmol/L and 2.29 nmol/L and 1.89 nmol/L.

Values taken from patent publication US7074334B2, “Method for determining the binding behavior of ligands which specifically bind to target molecules” (priority 2001, dated 2006).
